For 18 compounds, IC50 results are on record in patent US20240109917A1 (ACTELION PHARMACEUTICALS LTD, priority 2020, published 2024).

Assay [1] concerns the target His6-TEV-PDGFRβ (557-1016) (Homo sapiens (Human), UniProt P09619). As to the kind of experiment: PDGFRβ HTRF Assay. Format: biochemical. To be noted: read-out: PDGFR HTRF IC50. A digest of the protocol:
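HTRF KinEASE-TK readout (665/620 nm ratio) of TK-biotin substrate phosphorylation by His-tagged PDGFRβ kinase domain. Enzyme and inhibitor preincubated 30 min, then ATP/substrate added for 3 h at room temperature before 60 min EDTA quench/detection.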

The target of the next assay is PDGFRβ (Rattus norvegicus (Rat), UniProt Q05030). Description: PDGFRβ Cellular Assay (PDGFRb P-Y751 HTRF in A10 cells stimulated with PDGF-BB). In kind it is cell-based. In short, it runs like this:
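Phospho-Y751 PDGFRβ was measured by HTRF in lysates of A10 rat cells. Cells received compound for 3 hours before PDGF-BB stimulation (100 ng/mL working stock).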
On the technique in general: Time-resolved FRET reads energy transfer from a long-lived donor to a nearby acceptor.

Like-named read-outs stand apart in the source and are kept apart here.

PDGFRβ, sequence (Q05030 32-1097): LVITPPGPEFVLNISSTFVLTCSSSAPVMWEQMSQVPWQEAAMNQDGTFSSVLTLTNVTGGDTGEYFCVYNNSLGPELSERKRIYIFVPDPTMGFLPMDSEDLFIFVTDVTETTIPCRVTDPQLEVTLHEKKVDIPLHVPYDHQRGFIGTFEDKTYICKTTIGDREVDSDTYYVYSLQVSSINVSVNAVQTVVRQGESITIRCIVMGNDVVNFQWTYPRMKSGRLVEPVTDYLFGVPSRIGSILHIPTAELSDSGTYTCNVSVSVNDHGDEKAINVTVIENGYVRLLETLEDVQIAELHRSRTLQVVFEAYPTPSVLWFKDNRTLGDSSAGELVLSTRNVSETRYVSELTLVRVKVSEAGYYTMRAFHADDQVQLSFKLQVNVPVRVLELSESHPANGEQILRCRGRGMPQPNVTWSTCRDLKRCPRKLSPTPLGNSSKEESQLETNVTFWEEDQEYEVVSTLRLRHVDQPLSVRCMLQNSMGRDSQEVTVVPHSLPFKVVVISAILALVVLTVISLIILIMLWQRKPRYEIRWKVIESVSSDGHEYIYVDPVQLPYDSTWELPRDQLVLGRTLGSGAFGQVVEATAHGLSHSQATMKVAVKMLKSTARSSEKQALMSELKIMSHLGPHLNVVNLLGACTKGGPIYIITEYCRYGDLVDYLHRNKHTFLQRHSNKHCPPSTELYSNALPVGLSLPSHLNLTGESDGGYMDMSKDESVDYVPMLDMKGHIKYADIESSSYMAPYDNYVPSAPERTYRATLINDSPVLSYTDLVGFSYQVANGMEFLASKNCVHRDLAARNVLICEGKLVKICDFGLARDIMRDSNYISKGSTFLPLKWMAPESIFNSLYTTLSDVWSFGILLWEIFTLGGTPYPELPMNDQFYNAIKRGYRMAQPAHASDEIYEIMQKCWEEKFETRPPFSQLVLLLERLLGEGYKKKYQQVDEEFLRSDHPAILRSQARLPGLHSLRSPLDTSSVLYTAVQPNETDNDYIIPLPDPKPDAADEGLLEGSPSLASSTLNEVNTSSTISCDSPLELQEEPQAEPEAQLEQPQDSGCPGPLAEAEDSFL
His6-TEV-PDGFRβ (557-1016), sequence (P09619 557-1016): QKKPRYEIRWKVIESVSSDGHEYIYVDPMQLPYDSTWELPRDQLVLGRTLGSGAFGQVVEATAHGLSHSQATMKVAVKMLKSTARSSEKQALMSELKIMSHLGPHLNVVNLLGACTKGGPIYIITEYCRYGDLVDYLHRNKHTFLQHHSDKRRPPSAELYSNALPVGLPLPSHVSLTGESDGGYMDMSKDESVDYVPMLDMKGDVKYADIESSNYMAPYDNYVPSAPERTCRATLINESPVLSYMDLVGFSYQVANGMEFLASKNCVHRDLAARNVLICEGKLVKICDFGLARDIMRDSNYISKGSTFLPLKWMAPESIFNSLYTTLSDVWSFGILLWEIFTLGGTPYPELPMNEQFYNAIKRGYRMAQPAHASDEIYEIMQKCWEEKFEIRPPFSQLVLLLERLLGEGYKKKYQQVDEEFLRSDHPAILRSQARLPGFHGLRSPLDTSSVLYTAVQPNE

In the case of `Cc1ncc(NC(=O)CN2CC(C)(C)C2)cc1NC(=O)c1cnn2cc(-c3ccc(CO)o3)sc12` [Example 292, N-(5-(2-(3,3-dimethylazetidin-1-yl)acetamido)-2-methylpyridin-3-yl)-2-(5-(hydroxymethyl)furan-2-yl)pyrazolo[5,1-b]thiazole-7-carboxamide], the figures for the IC50 (in assay [1]; at PDGFRβ (read-out: PDGFR Cellular IC50)) were 0.3 nM and 4.2 nM, respectively.

Regarding `Cc1ncc(NC(=O)CN2CC(C)(C)C2)cc1NC(=O)c1cnn2cc(-c3cnn(C4CCNCC4)c3)sc12` [Example 293, N-(5-(2-(3,3-dimethylazetidin-1-yl)acetamido)-2-methylpyridin-3-yl)-2-(1-(piperidin-4-yl)-1H-pyrazol-4-yl)pyrazolo[5,1-b]thiazole-7-carboxamide], the results for the IC50 (in assay [1]; on PDGFRβ (read-out: PDGFR Cellular IC50)) were 0.4 nM and 337 nM, respectively.

With `Cc1ncc(NC(=O)CN(C)C2CCOCC2)cc1NC(=O)c1cnn2cc(-c3cnn(C4CC4)c3)sc12` [Example 294, 2-(1-cyclopropyl-1H-pyrazol-4-yl)-N-(2-methyl-5-(2-(methyl(tetrahydro-2H-pyran-4-yl)amino)acetamido)pyridin-3-yl)pyrazolo[5,1-b]thiazole-7-carboxamide], the IC50 in assay [1] was 0.3 nM; at PDGFRβ (read-out: PDGFR Cellular IC50) it was 12.7 nM.

With `Cc1ncc(NC(=O)CN(C)C2CCOCC2)cc1NC(=O)c1cnn2cc(-c3cnn(C(F)F)c3)sc12` [Example 295, 2-(1-(difluoromethyl)-1H-pyrazol-4-yl)-N-(2-methyl-5-(2-(methyl(tetrahydro-2H-pyran-4-yl)amino)acetamido)pyridin-3-yl)pyrazolo[5,1-b]thiazole-7-carboxamide], the IC50 in assay [1] turned out to be 0.7 nM; at PDGFRβ (read-out: PDGFR Cellular IC50) it was 21.3 nM.

`Cc1ncc(NC(=O)CN(C)C2CCOCC2)cc1NC(=O)c1cnn2cc(-c3cnn(C4CCC4)c3)sc12` [Example 296, 2-(1-cyclobutyl-1H-pyrazol-4-yl)-N-(2-methyl-5-(2-(methyl(tetrahydro-2H-pyran-4-yl)amino)acetamido)pyridin-3-yl)pyrazolo[5,1-b]thiazole-7-carboxamide]: the IC50 in assay [1] was determined as 0.3 nM; at PDGFRβ (read-out: PDGFR Cellular IC50), 7.6 nM.

For `Cc1ncc(NC(=O)CN(C)C2CCOCC2)cc1NC(=O)c1cnn2cc(-c3cnn(C(C)C#N)c3)sc12` (stereo not drawn) [Example 297, 2-(1-(1-cyanoethyl)-1H-pyrazol-4-yl)-N-(2-methyl-5-(2-(methyl(tetrahydro-2H-pyran-4-yl)amino)acetamido)pyridin-3-yl)pyrazolo[5,1-b]thiazole-7-carboxamide], the IC50 is 0.7 nM in assay [1] and 98 nM on PDGFRβ (read-out: PDGFR Cellular IC50).

For `Cc1ncc(NC(=O)CN(C)C2CCOCC2)cc1NC(=O)c1cnn2cc(-c3cnn(CS(C)(=O)=O)c3)sc12` [Example 298, N-(2-methyl-5-(2-(methyl(tetrahydro-2H-pyran-4-yl)amino)acetamido)pyridin-3-yl)-2-(1-((methylsulfonyl)methyl)-1H-pyrazol-4-yl)pyrazolo[5,1-b]thiazole-7-carboxamide], the IC50 in assay [1] came to 0.9 nM; against PDGFRβ (PDGFR Cellular IC50), 236 nM.

For the compound `Cc1ncc(NC(=O)CN(C)C2CCOCC2)cc1NC(=O)c1cnn2cc(-c3cnn(CC#N)c3)sc12` [Example 299, 2-(1-(cyanomethyl)-1H-pyrazol-4-yl)-N-(2-methyl-5-(2-(methyl(tetrahydro-2H-pyran-4-yl)amino)acetamido)pyridin-3-yl)pyrazolo[5,1-b]thiazole-7-carboxamide], the IC50 in assay [1] was found to be 0.5 nM; on PDGFRβ (read-out: PDGFR Cellular IC50), 102 nM.

Regarding `Cc1ncc(NC(=O)CN(C)C2CCOCC2)cc1NC(=O)c1cnn2cc(-c3cnn(CC(N)=O)c3)sc12` [Example 300, 2-(1-(2-amino-2-oxoethyl)-1H-pyrazol-4-yl)-N-(2-methyl-5-(2-(methyl(tetrahydro-2H-pyran-4-yl)amino)acetamido)pyridin-3-yl)pyrazolo[5,1-b]thiazole-7-carboxamide], the IC50 turned out to be 1.2 nM in assay [1] and 1010 nM at PDGFRβ (read-out: PDGFR Cellular IC50).

`COc1ncccc1-c1cn2ncc(C(=O)Nc3cc(C(=O)NCCN4CCC[C@@H]4C)cnc3C)c2s1` [Example 301, (S)-2-(2-methoxypyridin-3-yl)-N-(2-methyl-5-((2-(2-methylpyrrolidin-1-yl)ethyl)carbamoyl)pyridin-3-yl)pyrazolo[5,1-b]thiazole-7-carboxamide]: the IC50 in assay [1] worked out at 0.2 nM; at PDGFRβ (read-out: PDGFR Cellular IC50), 4.3 nM.

In the case of `Cc1ncc(NC(=O)CC23CCCN2CCC3)cc1NC(=O)c1cnn2cc(-c3cnn(C)c3)sc12` [Example 302, 2-(1-methyl-1H-pyrazol-4-yl)-N-(2-methyl-5-(2-(tetrahydro-1H-pyrrolizin-7a(5H)-yl)acetamido)pyridin-3-yl)pyrazolo[5,1-b]thiazole-7-carboxamide], the values for the IC50 (in assay [1]; on PDGFRβ (read-out: PDGFR Cellular IC50)) were 1.2 nM and 7 nM, respectively.

Turning to `Cc1ncc(NC(=O)CN2CCCC(O)C2)cc1NC(=O)c1cnn2cc(-c3cnn(C)c3)sc12` (stereo not drawn) [Example 303, N-(5-(2-(3-hydroxypiperidin-1-yl)acetamido)-2-methylpyridin-3-yl)-2-(1-methyl-1H-pyrazol-4-yl)pyrazolo[5,1-b]thiazole-7-carboxamide], the IC50 was determined as 0.4 nM in assay [1] and 121 nM on PDGFRβ (read-out: PDGFR Cellular IC50).

Consider `Cc1ncc(NC(=O)[C@@H]2C[C@@H](C)CN2C)cc1NC(=O)c1cnn2cc(-c3cnn(C)c3)sc12` [Example 304, N-(5-((2S,4R)-1,4-dimethylpyrrolidine-2-carboxamido)-2-methylpyridin-3-yl)-2-(1-methyl-1H-pyrazol-4-yl)pyrazolo[5,1-b]thiazole-7-carboxamide], for which the IC50 in assay [1] worked out at 0.6 nM; on PDGFRβ (read-out: PDGFR Cellular IC50), 9.3 nM.

Consider `Cc1ncc(NC(=O)C[C@@H]2CCCCN2C(C)C)cc1NC(=O)c1cnn2cc(-c3cnn(C)c3)sc12` [Example 305, (S)—N-(5-(2-(1-isopropylpiperidin-2-yl)acetamido)-2-methylpyridin-3-yl)-2-(1-methyl-1H-pyrazol-4-yl)pyrazolo[5,1-b]thiazole-7-carboxamide], for which the IC50 in assay [1] amounted to 2.1 nM; on PDGFRβ (read-out: PDGFR Cellular IC50), 308 nM.

As to `Cc1ncc(NC(=O)C(C)N2CCCCCC2)cc1NC(=O)c1cnn2cc(-c3cnn(C)c3)sc12` (stereo not drawn) [Example 306, N-(5-(2-(azepan-1-yl)propanamido)-2-methylpyridin-3-yl)-2-(1-methyl-1H-pyrazol-4-yl)pyrazolo[5,1-b]thiazole-7-carboxamide], the IC50 was determined as 0.5 nM in assay [1] and 4.8 nM on PDGFRβ (read-out: PDGFR Cellular IC50).

With `Cc1ncc(NC(=O)CC(C)N2CCCCC2)cc1NC(=O)c1cnn2cc(-c3cnn(C)c3)sc12` (stereo not drawn) [Example 307, 2-(1-methyl-1H-pyrazol-4-yl)-N-(2-methyl-5-(3-(piperidin-1-yl)butanamido)pyridin-3-yl)pyrazolo[5,1-b]thiazole-7-carboxamide], the IC50 in assay [1] worked out at 9.7 nM; on PDGFRβ (read-out: PDGFR Cellular IC50), 73.2 nM.

As to `Cc1ncc(NC(=O)[C@@H]2CCCN3CCCC[C@H]23)cc1NC(=O)c1cnn2cc(-c3cnn(C)c3)sc12` [Example 308, 2-(1-methyl-1H-pyrazol-4-yl)-N-(2-methyl-5-((1R,9aR)-octahydro-2H-quinolizine-1-carboxamido)pyridin-3-yl)pyrazolo[5,1-b]thiazole-7-carboxamide], the IC50 is 20.9 nM in assay [1] and 311 nM on PDGFRβ (read-out: PDGFR Cellular IC50).

On to `COc1ncccc1-c1cn2ncc(C(=O)Nc3cc(NC(=O)C[C@H]4CCCN4C(C)C)cnc3C)c2s1` [Example 309, (R)—N-(5-(2-(1-isopropylpyrrolidin-2-yl)acetamido)-2-methylpyridin-3-yl)-2-(2-methoxypyridin-3-yl)pyrazolo[5,1-b]thiazole-7-carboxamide], for which the IC50 was 0.2 nM in assay [1] and 4.2 nM on PDGFRβ (read-out: PDGFR Cellular IC50).

The IC50 is the concentration that inhibits the measured activity by half.
